Results as given in publication PMC7558282, “The Anticancer Activity for the Bumetanide-Based Analogs via Targeting the Tumor-Associated Membrane-Bound Human Carbonic Anhydrase-IX Enzyme” (Pharmaceuticals, 2020).

Key:
A-498 cells = experiment: cell cycle analysis (PI, flow cytometry) in A-498; assay type: cell-based, human; conditions: 6 µM, 48 h
Protocol: The efficient antiproliferative activity of compound 9c on the kidney carcinoma A-498 cell line (Table 2) prompted a further investigation of its mechanistic growth inhibitory action. Thus, the impact of bumetanide analog 9c at 6 µM for 48 h on cell cycle distribution and induction of apoptosis in A-498 cells was next explored. […] Analysis of apoptosis was performed to determine the mode of cell death induced by 9c in A-498 cells. Compound 9c induced both early and late apoptosis in A-498 cells at 6 µM when compared to the untreated control cells (p < 0.01 and p < 0.001, respectively) (Figure 5A). […]
Figure 4 (A) Effect of compound 9c on the cell cycle and apoptosis in kidney carcinoma cell line A-498. […] Cells were then fixed, stained with propidium iodide (PI), and analyzed by flow cytometry. […] (B) Quantitative analysis of 4N (G2/M), 2N (G0G1), > 2N (S), and < 2N (sub-G1). DNA content was determined with CellQuest software. […]
A-498 Cells were seeded at a density of 1 × 10^5 cells/well in 24-well plates and treated with compound 9c (6 µM) for 48 h. […] The DNA content of cells (10,000 cells/experimental group) was analyzed by flow cytometer at 488 nm using a FACSCalibur flow cytometer (BD Biosciences, San Jose, CA, USA) and all data were recorded and analyzed using the CellQuest Software (Becton-Dickinson Biosciences, San Jose, CA, USA). […]

hCA-IX = hCA-IX (Homo sapiens, UniProt Q16790); experiment: colorimetric CA-inhibition assay based on CA-esterase activity, hCA-IX
Protocol: Based on the kit manufacturer’s protocol, the candidate inhibitors were dissolved in DMSO at 10 × highest final test concentration and specific aliquots of such working dilutions were incubated with the target hCA isozyme for 10 min at room temperature prior to permit the formation of the enzyme-inhibitor complex. Triplicate experiments were performed for each candidate inhibitor concentration. Parallel wells of solvent and enzyme controls were prepared to test the solvent impact upon the activity of the target enzyme. […] Following incubation, the CA-substrate was added and changes in absorbance (at 405 nm) were monitored for 60 min at room temperature within the kinetic mode. The negative enzyme control wells (without added compounds) were arbitrarily set as 100% enzyme activity. […] Absorbance readings from background wells were subtracted from the compound assay wells in order to account for background hydrolysis activity caused by the buffer solution [44, 45].

[1] = test system: A-498 kidney carcinoma cells; experiment: MTT cell proliferation assay, A-498; assay type: cell-based, human; conditions: Homo sapiens, A498, 48 h, ±SEM
Protocol: Cells were cultured in 96-well plate, at cell density of 1.2–1.8 × 10^4 cells/well, using Dulbecco’s Modified Eagle Medium (Invitrogen^TM, Carlsbad, CA, USA) supplemented with 10% (w/v) fetal bovine serum (Hyclone^TM, Marlborough, MA, USA), 10 ug/mL of insulin (Sigma-Aldrich^TM, St. Louis, MO, USA), and 1% (w/v) penicillin-streptomycin (Sigma-Aldrich^TM, St. Louis, MO, USA). Following 24h-incubation period under 5% CO2 at 37 °C, cells were treated with compounds’ serial concentrations (0.1 µM–100 µM) in DMSO, where the DMSO final concentration in the culture medium never exceeded 0.2% (v/v). Subsequently, the treated microplates were incubated for 48 h at 5% CO2/37 °C prior to examination under the inverted microscope and proceeding for the MTT assay. The culture medium was discarded and 100 µL of complete medium comprising 5 mg/mL MTT dye were dispensed within every well, then plates were reincubated for 2 h at 5% CO2/37 °C. […] Color intensity within each well was measured spectrophotometrically using the ROBONIK-P2000® ELISA microplate reader (Bio-Tek^TM, Winooski, VT, USA) at 450 nm while subtracting the background absorbance of multi well plates at 690 nm. The experiment was conducted in triplicates and IC50 values were estimated through linear regression between the logarithm-transformed compound concentrations and corresponding % cell viability = (mean absorbance in test wells/mean absorbance in control wells) ∗ 100, having the response variable slope (four parameters) for all samples.

IC50 (hCA-IX; hCA-IX IC50, three replicate experiments): 4.42 nM
Selectivity Ratio II/IX (hCA-IX; ratio of IC50 values for isozyme CA-II relative to CA-IX): 72.4
IC50 [1]: 5070 ± 110 nM
Compound: CCCCNc1cc(-c2n[nH]c(=S)n2-c2ccc(Br)cc2)cc(S(N)(=O)=O)c1Oc1ccccc1 [Compound 9c]
cells in the sub-G1 phase (A-498 cells; control 1.3%): 25.5%
cell population at the G2/M stage (A-498 cells; untreated control 10.8%): 48.6%
